Literature values in patent publication US20090175824A1, “Peptides for the treatment of HCV infections” (priority 2007, published 2009).

Conditions: patients with hepatitis C

CC(C)(C)NC(=O)NC(C(=O)N1CC2C(C1C(=O)NC(CC1CCC1)C(=O)C(N)=O)C2(C)C)C(C)(C)C (centres unmarked) [boceprevir, N-(4-amino-1-cyclobutyl-3,4-dioxobutan-2-yl)-3-(2-(3-tert-butylureido)-3,3-dimethylbutanoyl)-6,6-dimethyl-3-azabicyclo[3.1.0]hexane-2-carboxamide]
adverse events: infrequent and included headache, fever and myalgia
tolerability: well-tolerated
